Measured values reported in publication PMC12325182, “Discovery of novel and potent celastrol derivatives as PRDX1 inhibitors for cancer therapy through structure-based virtual screening” (Frontiers in Pharmacology, 2025).

What was measured:
Assay type in all cases: biochemical
[1] = target: other PRDX family members and a panel of kinases; experiment: Kinase selectivity assay (whole panel); conditions: whole panel of Table S1; read-out: IC50 against other PRDX family members and a panel of kinases
Protocol: The selectivity of CP1 for PRDX1 was evaluated through kinase selectivity assays against other PRDX family members and a panel of kinases. The experiments were conducted by ICE Biosciences (Beijing, China).

[2] = target: FER (Homo sapiens, UniProt P16591); experiment: Kinase selectivity assay; conditions: target FER; read-out: CP1 IC50
Sequence of FER (P16591 whole entry): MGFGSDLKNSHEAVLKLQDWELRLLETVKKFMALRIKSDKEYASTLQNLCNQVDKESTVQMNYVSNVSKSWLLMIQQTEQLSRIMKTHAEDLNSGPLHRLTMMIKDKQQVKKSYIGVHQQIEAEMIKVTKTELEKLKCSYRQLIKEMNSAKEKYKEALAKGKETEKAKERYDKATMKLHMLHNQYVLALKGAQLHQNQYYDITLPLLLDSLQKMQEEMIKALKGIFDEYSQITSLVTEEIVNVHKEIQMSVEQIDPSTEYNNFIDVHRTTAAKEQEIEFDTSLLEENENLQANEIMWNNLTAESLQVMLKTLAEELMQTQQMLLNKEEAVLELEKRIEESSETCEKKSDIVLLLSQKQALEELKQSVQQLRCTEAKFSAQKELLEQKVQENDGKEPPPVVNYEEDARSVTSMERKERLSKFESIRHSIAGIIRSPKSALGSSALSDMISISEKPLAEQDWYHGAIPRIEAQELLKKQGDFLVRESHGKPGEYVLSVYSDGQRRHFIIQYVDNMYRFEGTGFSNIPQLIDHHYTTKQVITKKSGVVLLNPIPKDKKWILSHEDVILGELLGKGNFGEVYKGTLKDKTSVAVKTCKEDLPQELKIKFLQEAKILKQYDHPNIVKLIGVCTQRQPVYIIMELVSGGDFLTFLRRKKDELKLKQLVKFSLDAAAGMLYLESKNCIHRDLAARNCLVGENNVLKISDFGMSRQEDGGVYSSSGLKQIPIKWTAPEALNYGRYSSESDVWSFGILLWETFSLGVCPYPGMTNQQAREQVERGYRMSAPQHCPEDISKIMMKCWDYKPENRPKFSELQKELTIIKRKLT
Procedure, shortened: (§1)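 Off-target panel for the PRDX1 ligand CP1, spanning sibling PRDX proteins and multiple kinases, done at a service provider.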

[3] = target: T1, FGFR3 (Homo sapiens, UniProt P22607); experiment: Kinase selectivity assay; conditions: target FGFR3; read-out: CP1 IC50
T1 construct: assay run by ICE Biosciences (Beijing, China)
T1 sequence (P22607 23-806): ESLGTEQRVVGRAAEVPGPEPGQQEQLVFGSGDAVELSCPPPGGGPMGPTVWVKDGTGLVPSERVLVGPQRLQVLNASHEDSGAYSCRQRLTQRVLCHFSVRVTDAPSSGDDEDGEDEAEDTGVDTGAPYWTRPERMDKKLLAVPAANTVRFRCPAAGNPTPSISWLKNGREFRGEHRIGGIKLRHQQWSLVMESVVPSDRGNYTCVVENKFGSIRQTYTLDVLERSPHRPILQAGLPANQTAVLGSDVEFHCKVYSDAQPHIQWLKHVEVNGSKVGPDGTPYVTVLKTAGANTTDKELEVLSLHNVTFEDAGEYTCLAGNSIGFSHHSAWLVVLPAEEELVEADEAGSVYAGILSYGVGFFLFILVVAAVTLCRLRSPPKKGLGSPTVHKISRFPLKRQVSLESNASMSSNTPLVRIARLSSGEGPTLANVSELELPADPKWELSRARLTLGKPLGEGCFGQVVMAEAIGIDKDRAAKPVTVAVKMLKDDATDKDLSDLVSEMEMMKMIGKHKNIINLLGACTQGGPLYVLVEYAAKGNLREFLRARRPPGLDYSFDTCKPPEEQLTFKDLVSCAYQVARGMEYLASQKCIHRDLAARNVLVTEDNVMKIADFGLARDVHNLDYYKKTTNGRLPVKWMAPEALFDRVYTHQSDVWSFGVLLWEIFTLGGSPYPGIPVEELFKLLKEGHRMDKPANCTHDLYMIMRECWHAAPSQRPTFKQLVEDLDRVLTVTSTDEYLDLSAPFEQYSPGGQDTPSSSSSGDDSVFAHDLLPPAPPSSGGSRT
Procedure, shortened: as §1

[4] = target: T2, PTK2B (Homo sapiens, UniProt Q14289); experiment: Kinase selectivity assay; conditions: target PTK2B; read-out: CP1 IC50
T2 construct: assay run by ICE Biosciences (Beijing, China)
T2 sequence (Q14289 whole entry): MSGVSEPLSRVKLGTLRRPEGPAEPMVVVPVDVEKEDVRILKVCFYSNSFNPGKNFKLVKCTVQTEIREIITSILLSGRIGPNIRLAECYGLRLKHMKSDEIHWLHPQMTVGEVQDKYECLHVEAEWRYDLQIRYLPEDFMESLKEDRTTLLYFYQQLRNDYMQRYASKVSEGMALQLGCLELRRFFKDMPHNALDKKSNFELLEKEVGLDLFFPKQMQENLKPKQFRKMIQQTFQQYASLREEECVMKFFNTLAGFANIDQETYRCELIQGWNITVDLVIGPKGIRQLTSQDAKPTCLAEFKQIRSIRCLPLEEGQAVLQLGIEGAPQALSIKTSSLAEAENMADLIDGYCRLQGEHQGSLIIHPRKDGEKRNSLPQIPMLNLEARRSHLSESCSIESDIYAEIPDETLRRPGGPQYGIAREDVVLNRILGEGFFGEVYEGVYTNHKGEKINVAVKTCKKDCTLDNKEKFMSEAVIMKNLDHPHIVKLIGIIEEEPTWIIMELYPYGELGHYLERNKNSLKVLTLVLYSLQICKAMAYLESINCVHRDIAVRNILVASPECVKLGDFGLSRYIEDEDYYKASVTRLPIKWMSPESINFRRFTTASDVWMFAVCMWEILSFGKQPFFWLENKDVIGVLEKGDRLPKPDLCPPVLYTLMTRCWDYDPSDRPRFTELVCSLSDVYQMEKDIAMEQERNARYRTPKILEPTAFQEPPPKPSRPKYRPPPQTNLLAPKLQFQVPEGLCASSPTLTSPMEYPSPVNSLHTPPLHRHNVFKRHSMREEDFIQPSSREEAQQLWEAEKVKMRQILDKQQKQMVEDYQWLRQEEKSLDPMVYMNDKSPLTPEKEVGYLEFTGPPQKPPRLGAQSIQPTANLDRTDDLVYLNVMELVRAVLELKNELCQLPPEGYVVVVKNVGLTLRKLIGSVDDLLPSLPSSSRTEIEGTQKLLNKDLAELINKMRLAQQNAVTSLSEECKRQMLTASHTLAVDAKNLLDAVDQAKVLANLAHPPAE
Procedure, shortened: as §1

Measured: IC50

CC1=C(CC(=O)/C=C/c2cccc(CO)c2)C(=O)C=C2C1=CC=C1[C@@]2(C)CC[C@@]2(C)C3C[C@](C)(C(=O)CCc4nc(C(O)C(O)O)c(C)nc4C)CC[C@]3(C)CC[C@]12C (stereo partly shown) [CP1]
> 30 µM: all assays above
